This note sets out measurements from patent US9670227B2, “Thienopyrimidine derivatives, a process for their preparation and pharmaceutical compositions containing them” (LES LABORATOIRES SERVIER, priority 2013, dated 2017).

For test [1], the target named is Mcl-1 protein (UniProtKB primary accession number: Q07820) (Homo sapiens, UniProt Q07820). The experiment in a line: Inhibition of Mcl-1 by fluorescence polarisation, Method 1. The following applies: read-out: IC50 (M) Mcl-1 FP. The format is binding. The method, boiled down: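 An 11-point DMSO dilution of compound is mixed with buffer (10 mM HEPES, 150 mM NaCl, 0.05% Tween 20, pH 7.4) carrying 1 nM fluorescein-labelled ligand and 5 nM Mcl-1, final concentrations. Displacement is monitored by fluorescence polarisation.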
Chain of Mcl-1 protein (Q07820 whole entry): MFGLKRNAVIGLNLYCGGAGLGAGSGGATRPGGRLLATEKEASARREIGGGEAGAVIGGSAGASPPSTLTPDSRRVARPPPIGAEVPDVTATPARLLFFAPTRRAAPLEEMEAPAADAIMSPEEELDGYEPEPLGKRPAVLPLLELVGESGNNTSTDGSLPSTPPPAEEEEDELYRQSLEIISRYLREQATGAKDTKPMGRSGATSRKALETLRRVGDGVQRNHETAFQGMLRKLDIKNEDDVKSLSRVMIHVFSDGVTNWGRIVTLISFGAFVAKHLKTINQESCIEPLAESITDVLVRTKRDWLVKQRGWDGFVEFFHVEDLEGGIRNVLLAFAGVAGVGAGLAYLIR
A general note: In fluorescence polarisation assays a small probe gives low polarisation when free and higher when bound to something large.

Test [2] has as its system H929 multiple myeloma tumour line. The experiment in a line: In vitro cytotoxicity, Microculture Tetrazolium Assay. Particulars: Homo sapiens, NCI-H929, 48 h, H929 cells, 48 hours exposure, MTT; read-out: IC50 (μM) MTT H929. Type of test: cell-based. As for the experimental part:
The cytotoxicity studies were carried out on the H929 multiple myeloma tumour line.
The cells are distributed onto microplates and exposed to the test compounds for 48 hours.

Test [3] deals with AMO-1 multiple myeloma cells. The experiment in a line: Quantification of the cleaved form of PARP in vivo (MSD ELISA, tumour lysates). More on the design: species or system mice (SCID strain). Particulars: activation factor: cleaved PARP in treated mice / control mice, AMO-1 xenograft in SCID mice, intraveinous or oral routes. The procedure, abridged:
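SCID mice bearing subcutaneous AMO-1 xenografts (1.10^7 cells) dosed intravenously or orally 12 to 14 days after grafting. Cleaved PARP in tumour lysates measured by MSD ELISA. Reported as activation factor, the ratio of treated to control cleaved PARP.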
Background: In an ELISA, binding on a coated surface is turned into a signal by an enzyme label.

Where two headings read alike, the source gives them in different places.

The term IC50 denotes the concentration needed to halve the response being measured. As for `CCCCn1nncc1COc1ccccc1CC(Oc1ncnc2sc(-c3ccc(F)cc3)c(-c3ccc(OCCN4CCN(C)CC4)c(Cl)c3C)c12)C(=O)O` [Example 95, (2R)-3-{2-[(1-butyl-1H-1,2,3-triazol-5-yl)methoxy]phenyl}-2-{[(5Sa)-5-{3-chloro-2-methyl-4-[2-(4-methylpiperazin-1-yl)ethoxy]phenyl}-6-(4-fluorophenyl)thieno[2,3-d]pyrimidin-4-yl]oxy}propanoic acid], the IC50 in test [1] (fluorescence polarisation test, Method 2 values are underlined in the patent (underlining not visible here)) was determined as 4.2e-09 M; in test [2], 0.022 µM. In test [3], this molecule came in with a PARP fold of 156.8 fold.
For `COc1ccccc1-c1nccc(COc2ccccc2CC(Oc2ncnc3sc(-c4ccc(OCc5ccncc5)cc4)c(-c4ccc(OCCN5CCN(C)CC5)c(Cl)c4C)c23)C(=O)O)n1` [Example 774, (2R)-2-[((5Sa)-5-{3-chloro-2-methyl-4-[2-(4-methylpiperazin-1-yl)ethoxy]phenyl}-6-[4-(pyridin-4-ylmethoxy)phenyl]thieno[2,3-d]pyrimidin-4-yl)oxy]-3-(2-{[2-(2-methoxyphenyl)pyrimidin-4-yl]methoxy}phenyl)propanoic acid], the IC50 in test [1] (fluorescence polarisation, Method 1, or Method 2) amounted to 9.48e-10 M; in test [2] it was 0.009 µM. Further, the PARP fold in test [3] is 104.8 fold.
